Counter-ions that a name gives are not always drawn.
Columns and labels:
[1] = test system: patients suffering from lower urinary tract symptoms; assay: Clinical test to patients suffering from lower urinary tract symptoms (twelve-week test); format: in vivo, human; details: total score for subjective symptom, QOL index and test on functions
Method: A clinical test was carried out under the following conditions using the patients suffering from lower urinary tract symptoms. Subjects: eighteen patients diagnosed as lower urinary tract symptoms, i.e. urinary disturbance without clear organic or neurological abnormality in lower urinary tract (15 males and 3 female, age: 57.2±14.2). Test drug and administering method: One capsule containing 0.2 mg of tamsulosin hydrochloride was orally administered once daily after breakfast for four weeks and, after that, the dose after 4 weeks was controlled in consideration of the following criterion, and the dose was orally administered once daily after breakfast. [table] Test period: twelve weeks (84 days) (4 weeks (28 days) for 8 males) Observed items: Evaluations and measurements were made for the following items before and after the administration. (1) Total score for subjective symptoms Total scores for the following <1>˜<7> before and after the administration were obtained in the same way as in Test Example 1. <1> Feel of residual urine, <2> Urination within two hours, <3> Break of urinary stream, <4> Urgency, <5> Force of urinary stream, <6> Straining upon urination and <7> Frequency of urination at night. (2) QOL Index “How do you think if the present urinating state continues in future as well?” (3) Test on Functions <1> maximum urinary stream rate <2> average urinary stream rate

[2] = test system: patients suffering from lower urinary tract symptoms; assay: Clinical test to patients suffering from lower urinary tract symptoms (four-week test); format: in vivo, human; details: total score for subjective symptom and QOL index
Method: A clinical test was carried out under the following conditions using the patients suffering from lower urinary tract symptoms. (cf. Chapter 1: Indexes for Evaluation of Prostatic Hypertrophy in “Guideline for Clinical Test for Urinary Disturbance” published by Iyaku Tosho Shuppan) Subjects: four patients diagnosed as lower urinary tract symptoms, i.e. urinary disturbance without clear organic or neurological abnormality in lower urinary tract (3 males and 1 female). Test drug and administering method:. One capsule containing 0.2 mg of tamsulosin hydrochloride was orally administered once daily after breakfast. Test period: four weeks (28 days) Observed items: Evaluations and measurements were made for the following items before and after the administration. (1) Total score for subjective symptoms Questioning was done to the patients for the following items and the total score was obtained. (2) QOL Index With regard to an index for quality of life (QOL), a questioning that “How do you think if the present urinary condition continues in future as well?” was done as a total diagnosis concerning the urinary disturbance and any of the following evaluations was collected.

SMILES: CCOc1ccccc1OCCN[C@H](C)Cc1ccc(OC)c(S(N)(=O)=O)c1 [tamsulosin hydrochloride, (R)(−)-5-[2-[[2-(o-ethoxyphenoxy)ethyl]amino]propyl]-2-methoxybenzene-sulfonamide]
- Overall conclusion on efficacy as therapeutic agent for lower urinary tract symptoms [1]: confirmed to be effective
- Overall conclusion on efficacy as therapeutic agent for lower urinary tract symptoms [2]: confirmed to be effective

Reference: patent publication US20060287395A1, “Pharmaceutical composition for the therapy of lower urinary tract symptoms” (ASTELLAS PHARMA INC., priority 1999, published 2006)
